One experiment concerns the target T1, MALT1 (Homo sapiens, UniProt Q9UDY8).
T1 construct: Avi-tagged FL MALT-1 (Pharmaron, stored at −70° C.); Avi tag
T1 sequence (Q9UDY8 1-824): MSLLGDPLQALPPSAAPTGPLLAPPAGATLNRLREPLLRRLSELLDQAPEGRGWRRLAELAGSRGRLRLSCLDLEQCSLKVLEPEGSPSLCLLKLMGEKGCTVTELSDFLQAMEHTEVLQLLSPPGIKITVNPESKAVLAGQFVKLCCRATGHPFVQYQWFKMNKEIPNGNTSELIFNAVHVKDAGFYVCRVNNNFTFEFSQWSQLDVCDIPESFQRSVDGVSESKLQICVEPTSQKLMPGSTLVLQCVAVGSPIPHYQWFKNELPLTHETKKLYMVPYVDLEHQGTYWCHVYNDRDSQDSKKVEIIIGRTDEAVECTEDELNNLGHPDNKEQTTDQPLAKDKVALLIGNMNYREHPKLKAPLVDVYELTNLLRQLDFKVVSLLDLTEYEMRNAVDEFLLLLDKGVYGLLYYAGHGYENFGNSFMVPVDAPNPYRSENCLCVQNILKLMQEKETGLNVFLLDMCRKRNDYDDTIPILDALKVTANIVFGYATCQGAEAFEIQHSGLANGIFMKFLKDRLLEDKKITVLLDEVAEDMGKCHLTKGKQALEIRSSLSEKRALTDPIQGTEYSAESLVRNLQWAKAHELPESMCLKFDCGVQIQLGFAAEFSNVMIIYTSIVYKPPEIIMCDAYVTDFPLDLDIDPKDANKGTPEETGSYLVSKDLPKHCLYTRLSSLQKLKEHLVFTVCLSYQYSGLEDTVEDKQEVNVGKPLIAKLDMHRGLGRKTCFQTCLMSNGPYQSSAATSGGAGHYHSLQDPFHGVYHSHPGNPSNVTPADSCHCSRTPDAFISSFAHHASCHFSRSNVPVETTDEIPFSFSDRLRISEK
In words: MALT-1 Fluorogenic Peptide Cleavage Assay (MALT1 inhibition assay). The note with it: Avi-tagged FL MALT-1, Ac-LRSR-AMC peptide substrate, 30 min pre-incubation, 90 min reaction. Format: biochemical. The procedure, abridged:
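Avi-tagged full-length MALT1 pre-incubated 30 min with compound (2% DMSO final), then cleavage of Ac-LRSR-AMC followed over 90 min at room temperature. AMC fluorescence read at 342/441 nm; % inhibition fitted to sigmoidal curves for IC50.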

The test system of a further experiment is NF-kB. Description: NF-kB reporter assay in Jurkat cells stimulated with aCD3/aCD28/PMA. Type of experiment: cell-based. The settings on record: Homo sapiens, Jurkat, read-out: NF-kB Reporter Assay IC50. The gist of the method:
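Jurkat cells (25,000/well, serum-free RPMI 1640) preincubated 1 hr at 37° C with serially diluted compound, then stimulated with aCD3/aCD28/PMA (final 5 μg/mL, 5 μg/mL, 0.03 μg/mL) for 4 hr. Reporter luminescence read with One-Glo; IC50 derived.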
(In general: Reporter assays use an easily measured gene product as a stand-in for the process of interest.)

Where [1] appears, read: Jurkat cells, 1 hr compound incubation, aCD3/aCD28/PMA stimulation 4 hr, One-Glo readout.

Where two headings read alike, the source gives them in different places.

Take `Cn1c(-c2ccc(S(=O)(=O)Nc3cccc4cnn(C)c34)cn2)cnc1C(F)(F)F` [Example I-234, 6-[3-methyl-2-(trifluoromethyl)imidazol-4-yl]-N-(1-methylindazol-7-yl)pyridine-3-sulfonamide]: the figures for the IC50 at MALT1 and in the experiment with NF-kB were greater than 2500 nM and less than 400 nM, respectively.

As to `COc1ncc2cnn(C)c2c1NS(=O)(=O)c1ccc(N2C[C@@](O)(C(F)(F)F)CC2=O)nc1` [Example I-235, (R)-6-(4-hydroxy-2-oxo-4-(trifluoromethyl)pyrrolidin-1-yl)-N-(6-methoxy-1-methyl-1H-pyrazolo[4,3-c]pyridin-7-yl)pyridine-3-sulfonamide], the figures for the IC50 at MALT1 and in the experiment with NF-kB (setting [1]) were less than 400 nM and 400 to 1000 nM, respectively.

For the compound `COc1ncc2cnn(C)c2c1NS(=O)(=O)c1ccc(N2C[C@](O)(C(F)(F)F)CC2=O)nc1` [Example I-236, (S)-6-(4-hydroxy-2-oxo-4-(trifluoromethyl)pyrrolidin-1-yl)-N-(6-methoxy-1-methyl-1H-pyrazolo[4,3-c]pyridin-7-yl)pyridine-3-sulfonamide], the IC50 was 400 to 1000 nM on MALT1 and greater than 2500 nM with NF-kB (setting [1]).

Consider `COc1ccc2cnn(C)c2c1NS(=O)(=O)c1ccc(-n2cc(C)[nH]c2=O)nc1` [Example I-237, N-(6-methoxy-1-methyl-1H-indazol-7-yl)-6-(4-methyl-2-oxo-2,3-dihydro-1H-imidazol-1-yl)pyridine-3-sulfonamide], for which the concentration for half-maximal inhibition (IC50) against MALT1 and in the experiment on NF-kB (setting [1]) was less than 400 nM in each case.

As to `CCOC(=O)c1cnn(-c2ccc(S(=O)(=O)Nc3c(OC)ccc4cnn(C)c34)cn2)c1C` [Example I-238, ethyl 1-{5-[(6-methoxy-1-methylindazol-7-yl)sulfamoyl]pyridin-2-yl}-5-methylpyrazole-4-carboxylate], the half-maximal inhibitory concentration (IC50) on MALT1 and with NF-kB (setting [1]) was less than 400 nM each time.

For `COc1ccc2cnn(C)c2c1NS(=O)(=O)c1ccc(-c2nc(C)nn2C)nc1` [Example I-239, 6-(1,3-dimethyl-1H-1,2,4-triazol-5-yl)-N-(6-methoxy-1-methyl-1H-indazol-7-yl)pyridine-3-sulfonamide], the figures for the IC50 against MALT1 and in the experiment with NF-kB (setting [1]) were 1000 to 2500 nM and greater than 2500 nM, respectively.

With `COc1ccc2c(F)nn(C)c2c1NS(=O)(=O)c1ccc(-n2cc(Cl)cn2)nc1` [Example I-240, 6-(4-chloro-1H-pyrazol-1-yl)-N-(3-fluoro-6-methoxy-1-methyl-1H-indazol-7-yl)pyridine-3-sulfonamide], the IC50 against MALT1 and in the experiment on NF-kB (setting [1]) was less than 400 nM throughout.

With `Cn1ncc2cccc(NS(=O)(=O)c3ccc(-c4cnc(C(F)F)s4)nc3)c21` [Example I-241, 6-(2-(difluoromethyl)thiazol-5-yl)-N-(1-methyl-1H-indazol-7-yl)pyridine-3-sulfonamide], the half-maximal inhibitory concentration (IC50) on MALT1 was 400 to 1000 nM; in the experiment with NF-kB it was less than 400 nM.

Turning to `COc1ccc2cnn(C)c2c1NS(=O)(=O)c1ccc(-n2ncc(CO)c2C)nc1` [Example I-242, 6-[4-(hydroxymethyl)-5-methylpyrazol-1-yl]-N-(6-methoxy-1-methylindazol-7-yl)pyridine-3-sulfonamide], the IC50 against MALT1 is 400 to 1000 nM; in the experiment on NF-kB (setting [1]) it was less than 400 nM.

As for `COc1ncc(-c2ccc(S(=O)(=O)Nc3cccc4cnn(C)c34)cn2)s1` [Example I-243, 6-(2-methoxythiazol-5-yl)-N-(1-methyl-1H-indazol-7-yl)pyridine-3-sulfonamide], the half-maximal inhibitory concentration (IC50) is greater than 2500 nM on MALT1 and less than 400 nM with NF-kB.

`Cn1ncc2cccc(NS(=O)(=O)c3ccc(-c4cnc(N5CCOCC5)s4)nc3)c21` [Example I-244, N-(1-methyl-1H-indazol-7-yl)-6-(2-morpholinothiazol-5-yl)pyridine-3-sulfonamide]: the results for the 50% inhibitory concentration (IC50) against MALT1 and in the experiment with NF-kB were greater than 2500 nM and less than 400 nM, respectively.

Regarding `Cn1ncc2cccc(NS(=O)(=O)c3ccc(-n4ncc5c4CCOC5)nc3)c21` [Example I-245, N-(1-methylindazol-7-yl)-6-{4H,6H,7H-pyrano[4,3-c]pyrazol-1-yl}pyridine-3-sulfonamide], the IC50 against MALT1 is greater than 2500 nM; with NF-kB (setting [1]), less than 400 nM.

`CCOC(=O)c1cnn(-c2ccc(S(=O)(=O)Nc3cccc4cnn(C)c34)cn2)c1C` [Example I-246, ethyl 5-methyl-1-(5-(N-(1-methyl-1H-indazol-7-yl)sulfamoyl)pyridin-2-yl)-1H-pyrazole-4-carboxylate]: the half-maximal inhibitory concentration (IC50) against MALT1 is greater than 2500 nM; in the experiment with NF-kB (setting [1]) it was less than 400 nM.

For `Cn1ncc2cccc(NS(=O)(=O)c3ccc(-n4cc5c(n4)CCOC5)nc3)c21` [Example I-247, N-(1-methylindazol-7-yl)-6-{4H,6H,7H-pyrano[4,3-c]pyrazol-2-yl}pyridine-3-sulfonamide], the IC50 at MALT1 is greater than 2500 nM; with NF-kB (setting [1]), less than 400 nM.

Turning to `CN[C@@H]1CCCC[C@H]1N(C)c1ccc(S(=O)(=O)Nc2cccc3cnn(C)c23)cn1` [Example I-248, 6-{methyl[(1R,2R)-2-(methylamino)cyclohexyl]amino}-N-(1-methylindazol-7-yl)pyridine-3-sulfonamide], the IC50 against MALT1 and in the experiment on NF-kB (setting [1]) was greater than 2500 nM throughout.

On to `COc1ccc2c(F)nn(C)c2c1NS(=O)(=O)c1ccc(-n2cc(C)cn2)nc1` [Example I-249, N-(3-fluoro-6-methoxy-1-methyl-1H-indazol-7-yl)-6-(4-methyl-1H-pyrazol-1-yl)pyridine-3-sulfonamide], for which the IC50 at MALT1 is less than 400 nM; in the experiment with NF-kB, 400 to 1000 nM.

Consider `Cn1ncc2cccc(NS(=O)(=O)c3ccc(-c4cnc(Cl)s4)nc3)c21` [Example I-250, 6-(2-chlorothiazol-5-yl)-N-(1-methyl-1H-indazol-7-yl)pyridine-3-sulfonamide], for which the values for the IC50 at MALT1 and with NF-kB were 1000 to 2500 nM and less than 400 nM, respectively.

On to `COC1(c2cnn(-c3ccc(S(=O)(=O)Nc4cccc5cnn(C)c45)cn3)c2)CC1` [Example I-251, 6-(4-(1-methoxycyclopropyl)-1H-pyrazol-1-yl)-N-(1-methyl-1H-indazol-7-yl)pyridine-3-sulfonamide], for which the IC50 against MALT1 was greater than 2500 nM; in the experiment with NF-kB (setting [1]), less than 400 nM.

For `Cc1c(CO)cnn1-c1ccc(S(=O)(=O)Nc2cccc3cnn(C)c23)cn1` [Example I-252, 6-[4-(hydroxymethyl)-5-methylpyrazol-1-yl]-N-(1-methylindazol-7-yl)pyridine-3-sulfonamide], the IC50 on MALT1 was greater than 2500 nM; with NF-kB (setting [1]) it was less than 400 nM.

`Cn1ncc2cccc(NS(=O)(=O)c3ccc(-c4cnn(C5COC5)c4)nc3)c21` [Example I-253, N-(1-methyl-1H-indazol-7-yl)-6-(1-(oxetan-3-yl)-1H-pyrazol-4-yl)pyridine-3-sulfonamide]: the results for the IC50 at MALT1 and in the experiment with NF-kB (setting [1]) were greater than 2500 nM and 400 to 1000 nM, respectively.

As for `Cc1nc(-c2ccc(S(=O)(=O)Nc3cccc4cnn(C)c34)cn2)cn1C(F)(F)F` [Example I-264, 6-(2-methyl-1-(trifluoromethyl)-1H-imidazol-4-yl)-N-(1-methyl-1H-indazol-7-yl)pyridine-3-sulfonamide], the values for the concentration for half-maximal inhibition (IC50) against MALT1 and with NF-kB (setting [1]) were greater than 2500 nM and less than 400 nM, respectively.

Regarding `Cn1ncc2cccc(NS(=O)(=O)c3ccc(-c4cnc(C5CC5)s4)nc3)c21` [Example I-265, 6-(2-cyclopropyl-1,3-thiazol-5-yl)-N-(1-methylindazol-7-yl)pyridine-3-sulfonamide], the IC50 on MALT1 was greater than 2500 nM; in the experiment on NF-kB (setting [1]), less than 400 nM.

In the case of `CC(C)c1ncc(-c2ccc(S(=O)(=O)Nc3cccc4cnn(C)c34)cn2)s1` [Example I-266, 6-(2-isopropyl-1,3-thiazol-5-yl)-N-(1-methylindazol-7-yl)pyridine-3-sulfonamide], the IC50 against MALT1 was greater than 2500 nM; with NF-kB, less than 400 nM.

In the case of `Cn1ncc2cccc(NS(=O)(=O)c3ccc(-c4cnc(C(C)(C)O)s4)nc3)c21` [Example I-267, 6-[2-(2-hydroxypropan-2-yl)-1,3-thiazol-5-yl]-N-(1-methylindazol-7-yl)pyridine-3-sulfonamide], the values for the IC50 against MALT1 and in the experiment on NF-kB (setting [1]) were greater than 2500 nM and 400 to 1000 nM, respectively.

Regarding `COC(C)(C)c1ncc(-c2ccc(S(=O)(=O)Nc3cccc4cnn(C)c34)cn2)s1` [Example I-268, 6-(2-(2-methoxypropan-2-yl)thiazol-5-yl)-N-(1-methyl-1H-indazol-7-yl)pyridine-3-sulfonamide], the results for the concentration for half-maximal inhibition (IC50) on MALT1 and with NF-kB were greater than 2500 nM and less than 400 nM, respectively.

As a reminder, the IC50 is the concentration at which inhibition is half-maximal.

The values are drawn from patent US20240150365A1 (Hotspot Therapeutics, Inc., priority 2022, published 2024).
